In ChEMBL document CHEMBL1147982, “Structure, inhibitor, and regulatory mechanism of Lyp, a lymphoid-specific tyrosine phosphatase implicated in autoimmune diseases” (Proc Natl Acad Sci U S A, 2007) one finds Activity and IC50 data, which are given here for one molecule.

pIC50: −log10 of the molar value. Activity calls are given as the source filed them. The rule behind the calls is not given here.

Experiment [1] concerns the target Receptor-type tyrosine-protein phosphatase F (Homo sapiens) (UniProt P10586). Nature of the experiment: Inhibition of LAR at 100 uM.
Experiment [2] concerns the target T1, Tyrosine-protein phosphatase non-receptor type 1 (Homo sapiens, UniProt P18031).
T1 sequence (P18031 whole entry): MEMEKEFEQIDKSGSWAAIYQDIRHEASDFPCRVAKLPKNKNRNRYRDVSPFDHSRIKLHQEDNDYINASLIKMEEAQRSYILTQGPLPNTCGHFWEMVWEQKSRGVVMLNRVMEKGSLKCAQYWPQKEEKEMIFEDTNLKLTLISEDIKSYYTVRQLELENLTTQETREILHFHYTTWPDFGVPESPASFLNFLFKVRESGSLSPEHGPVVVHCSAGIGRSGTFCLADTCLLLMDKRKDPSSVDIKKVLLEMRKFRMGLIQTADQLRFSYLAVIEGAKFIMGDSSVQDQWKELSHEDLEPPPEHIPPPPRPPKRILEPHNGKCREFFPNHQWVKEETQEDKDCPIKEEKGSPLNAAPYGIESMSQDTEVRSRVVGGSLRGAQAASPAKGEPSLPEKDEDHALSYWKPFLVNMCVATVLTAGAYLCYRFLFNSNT
Briefly: Inhibition of PTP1B.

Experiment [3] has as its target Tyrosine-protein phosphatase non-receptor type 13 (Homo sapiens, UniProt Q12923). Briefly: Inhibition of FAP1.
For experiment [4], the target named is Receptor-type tyrosine-protein phosphatase alpha (Homo sapiens) (UniProt P18433). Briefly: Inhibition of PTPalpha at 100 uM.
Experiment [5] concerns the target T2, Tyrosine-protein phosphatase non-receptor type 11 (Homo sapiens, UniProt Q06124).
T2 sequence (Q06124 whole entry): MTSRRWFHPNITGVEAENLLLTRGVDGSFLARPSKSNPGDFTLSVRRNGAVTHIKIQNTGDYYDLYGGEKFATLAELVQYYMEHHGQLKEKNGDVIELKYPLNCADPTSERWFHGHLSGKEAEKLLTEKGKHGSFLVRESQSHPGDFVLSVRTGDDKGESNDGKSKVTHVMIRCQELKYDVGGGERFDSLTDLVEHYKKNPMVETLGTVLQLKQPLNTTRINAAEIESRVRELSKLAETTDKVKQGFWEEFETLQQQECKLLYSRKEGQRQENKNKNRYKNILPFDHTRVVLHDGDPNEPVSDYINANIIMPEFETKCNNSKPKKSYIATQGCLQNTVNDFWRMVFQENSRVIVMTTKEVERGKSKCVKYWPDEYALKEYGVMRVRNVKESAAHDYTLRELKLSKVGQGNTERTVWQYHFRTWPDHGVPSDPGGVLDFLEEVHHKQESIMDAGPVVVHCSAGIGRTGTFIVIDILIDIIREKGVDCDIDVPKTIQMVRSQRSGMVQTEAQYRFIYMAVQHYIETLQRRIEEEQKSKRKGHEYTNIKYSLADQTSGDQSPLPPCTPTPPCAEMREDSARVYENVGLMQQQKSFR
Briefly: Inhibition of SHP2.

The target of experiment [6] is Dual specificity protein phosphatase 3 (Homo sapiens, UniProt P51452). Briefly: Inhibition of VHR.
Experiment [7] deals with T3, Tyrosine-protein phosphatase non-receptor type 9 (Homo sapiens, UniProt P43378).
T3 sequence (P43378 whole entry): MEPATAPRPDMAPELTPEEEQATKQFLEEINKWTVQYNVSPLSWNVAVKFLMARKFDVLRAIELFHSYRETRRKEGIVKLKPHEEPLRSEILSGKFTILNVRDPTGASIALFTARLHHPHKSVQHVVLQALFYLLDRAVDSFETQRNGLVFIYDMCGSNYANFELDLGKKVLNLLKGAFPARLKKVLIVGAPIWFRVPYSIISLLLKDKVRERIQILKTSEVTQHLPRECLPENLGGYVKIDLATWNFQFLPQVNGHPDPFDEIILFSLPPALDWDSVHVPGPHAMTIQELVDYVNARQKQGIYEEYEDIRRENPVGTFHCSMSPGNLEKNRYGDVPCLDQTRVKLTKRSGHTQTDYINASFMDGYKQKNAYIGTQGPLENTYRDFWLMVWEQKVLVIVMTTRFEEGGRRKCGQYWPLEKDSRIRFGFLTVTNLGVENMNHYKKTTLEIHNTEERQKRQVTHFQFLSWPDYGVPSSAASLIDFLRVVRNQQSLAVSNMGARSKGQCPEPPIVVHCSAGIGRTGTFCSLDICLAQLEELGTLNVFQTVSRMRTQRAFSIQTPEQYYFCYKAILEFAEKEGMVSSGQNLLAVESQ
Nature of the experiment: Inhibition of PTP-Meg2.

The target in experiment [8] is T4, Receptor-type tyrosine-protein phosphatase C (Homo sapiens, UniProt P08575).
T4 sequence (P08575 whole entry): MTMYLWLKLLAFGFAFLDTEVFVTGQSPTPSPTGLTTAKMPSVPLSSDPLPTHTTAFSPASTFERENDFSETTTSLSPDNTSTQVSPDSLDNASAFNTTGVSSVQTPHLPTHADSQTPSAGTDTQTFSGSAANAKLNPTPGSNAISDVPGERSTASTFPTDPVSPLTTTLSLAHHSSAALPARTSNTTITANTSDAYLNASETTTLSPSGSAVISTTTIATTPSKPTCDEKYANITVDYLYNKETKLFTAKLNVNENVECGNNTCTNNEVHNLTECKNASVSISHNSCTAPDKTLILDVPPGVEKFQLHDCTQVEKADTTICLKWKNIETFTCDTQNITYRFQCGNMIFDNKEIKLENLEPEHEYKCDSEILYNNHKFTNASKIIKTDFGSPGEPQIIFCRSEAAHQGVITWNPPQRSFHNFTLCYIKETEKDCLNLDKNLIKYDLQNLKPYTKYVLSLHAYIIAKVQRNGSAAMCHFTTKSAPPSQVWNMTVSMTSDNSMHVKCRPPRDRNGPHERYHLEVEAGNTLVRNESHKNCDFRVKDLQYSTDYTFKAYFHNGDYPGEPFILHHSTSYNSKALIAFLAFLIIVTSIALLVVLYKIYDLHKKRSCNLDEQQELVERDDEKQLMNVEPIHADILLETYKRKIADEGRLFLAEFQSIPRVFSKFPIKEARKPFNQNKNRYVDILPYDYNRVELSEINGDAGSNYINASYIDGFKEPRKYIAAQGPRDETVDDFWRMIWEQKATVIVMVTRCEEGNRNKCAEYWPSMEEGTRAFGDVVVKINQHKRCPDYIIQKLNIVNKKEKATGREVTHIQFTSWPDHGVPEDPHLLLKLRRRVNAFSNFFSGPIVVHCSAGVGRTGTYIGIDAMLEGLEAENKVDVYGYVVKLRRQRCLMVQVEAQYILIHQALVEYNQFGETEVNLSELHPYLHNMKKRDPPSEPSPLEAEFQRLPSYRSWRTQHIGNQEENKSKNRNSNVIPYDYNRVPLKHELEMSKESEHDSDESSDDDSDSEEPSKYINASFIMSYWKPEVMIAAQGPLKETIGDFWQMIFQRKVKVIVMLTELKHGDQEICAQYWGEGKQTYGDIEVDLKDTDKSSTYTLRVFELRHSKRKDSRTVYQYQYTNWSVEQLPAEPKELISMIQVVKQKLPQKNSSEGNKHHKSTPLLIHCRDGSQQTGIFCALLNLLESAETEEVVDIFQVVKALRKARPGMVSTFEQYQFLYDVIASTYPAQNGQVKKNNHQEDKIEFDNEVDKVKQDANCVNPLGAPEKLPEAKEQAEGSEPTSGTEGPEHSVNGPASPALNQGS
Nature of the experiment: Inhibition of CD45.

Experiment [9] addresses T5, Tyrosine-protein phosphatase non-receptor type 7 (Homo sapiens, UniProt P35236).
T5 sequence (P35236 whole entry): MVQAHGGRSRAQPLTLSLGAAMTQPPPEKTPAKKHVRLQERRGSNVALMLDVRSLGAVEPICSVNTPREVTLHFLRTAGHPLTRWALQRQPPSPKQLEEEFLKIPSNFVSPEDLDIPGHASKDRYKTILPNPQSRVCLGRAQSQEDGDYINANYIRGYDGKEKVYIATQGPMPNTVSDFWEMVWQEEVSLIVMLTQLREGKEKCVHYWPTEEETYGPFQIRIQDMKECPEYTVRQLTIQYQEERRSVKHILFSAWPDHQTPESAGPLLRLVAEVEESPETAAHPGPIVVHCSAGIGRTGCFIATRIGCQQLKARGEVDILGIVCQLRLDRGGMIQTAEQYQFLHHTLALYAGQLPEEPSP
Briefly: Inhibition of HePTP.

Experiment [10] is described as follows: Inhibition of lymphoid-specific tyrosine phosphatase pLyp35 mutant.

Sequence of Receptor-type tyrosine-protein phosphatase F (Homo sapiens) (P10586 whole entry): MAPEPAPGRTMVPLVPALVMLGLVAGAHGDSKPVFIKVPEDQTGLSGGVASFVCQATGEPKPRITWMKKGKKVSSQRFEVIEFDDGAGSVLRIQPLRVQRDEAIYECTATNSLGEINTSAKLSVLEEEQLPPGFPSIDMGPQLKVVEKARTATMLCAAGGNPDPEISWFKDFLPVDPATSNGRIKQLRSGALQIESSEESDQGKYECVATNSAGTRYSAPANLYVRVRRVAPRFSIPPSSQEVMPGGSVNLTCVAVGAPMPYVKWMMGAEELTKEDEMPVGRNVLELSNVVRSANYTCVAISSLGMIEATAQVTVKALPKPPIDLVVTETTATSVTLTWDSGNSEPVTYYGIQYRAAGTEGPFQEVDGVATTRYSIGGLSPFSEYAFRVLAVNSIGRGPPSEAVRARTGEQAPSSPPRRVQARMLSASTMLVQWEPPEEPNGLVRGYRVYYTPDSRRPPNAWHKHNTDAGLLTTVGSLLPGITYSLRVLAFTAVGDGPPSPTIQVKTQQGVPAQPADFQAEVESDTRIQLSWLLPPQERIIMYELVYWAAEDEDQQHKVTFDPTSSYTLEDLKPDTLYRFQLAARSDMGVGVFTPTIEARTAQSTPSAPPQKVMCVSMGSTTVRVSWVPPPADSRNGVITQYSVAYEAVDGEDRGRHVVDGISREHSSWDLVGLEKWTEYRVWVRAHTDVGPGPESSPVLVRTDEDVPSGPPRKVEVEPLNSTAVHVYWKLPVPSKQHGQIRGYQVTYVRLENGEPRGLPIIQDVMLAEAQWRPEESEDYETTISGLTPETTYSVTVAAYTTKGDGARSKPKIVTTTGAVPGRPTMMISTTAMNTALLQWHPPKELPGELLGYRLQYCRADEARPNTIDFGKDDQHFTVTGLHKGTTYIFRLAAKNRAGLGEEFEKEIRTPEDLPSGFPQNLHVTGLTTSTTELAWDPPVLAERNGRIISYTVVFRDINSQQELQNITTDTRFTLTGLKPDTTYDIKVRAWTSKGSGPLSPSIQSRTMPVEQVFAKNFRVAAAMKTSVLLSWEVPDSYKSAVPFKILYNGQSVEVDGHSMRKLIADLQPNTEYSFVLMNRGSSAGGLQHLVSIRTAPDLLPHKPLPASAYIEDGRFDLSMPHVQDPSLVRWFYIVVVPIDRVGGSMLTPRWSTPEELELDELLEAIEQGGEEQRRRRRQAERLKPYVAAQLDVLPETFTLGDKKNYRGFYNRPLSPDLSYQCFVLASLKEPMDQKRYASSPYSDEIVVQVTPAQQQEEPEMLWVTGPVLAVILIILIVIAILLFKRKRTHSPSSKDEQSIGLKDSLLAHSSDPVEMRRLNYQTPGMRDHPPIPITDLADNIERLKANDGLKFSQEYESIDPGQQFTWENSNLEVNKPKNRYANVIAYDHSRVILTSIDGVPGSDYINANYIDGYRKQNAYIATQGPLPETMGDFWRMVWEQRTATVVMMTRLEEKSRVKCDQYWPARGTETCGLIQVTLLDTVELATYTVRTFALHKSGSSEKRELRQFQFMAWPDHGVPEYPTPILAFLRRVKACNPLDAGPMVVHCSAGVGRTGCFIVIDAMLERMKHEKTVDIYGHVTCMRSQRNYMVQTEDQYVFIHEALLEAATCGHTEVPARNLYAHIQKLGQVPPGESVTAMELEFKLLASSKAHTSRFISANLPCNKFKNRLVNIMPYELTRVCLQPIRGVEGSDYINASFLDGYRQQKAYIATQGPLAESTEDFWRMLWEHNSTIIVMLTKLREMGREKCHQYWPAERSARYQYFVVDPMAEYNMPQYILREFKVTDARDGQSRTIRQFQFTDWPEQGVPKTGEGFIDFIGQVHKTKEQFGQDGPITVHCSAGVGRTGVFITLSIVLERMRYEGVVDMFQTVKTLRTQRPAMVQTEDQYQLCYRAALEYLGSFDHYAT
Sequence of Receptor-type tyrosine-protein phosphatase alpha (Homo sapiens) (P18433 20-802 limits assumed): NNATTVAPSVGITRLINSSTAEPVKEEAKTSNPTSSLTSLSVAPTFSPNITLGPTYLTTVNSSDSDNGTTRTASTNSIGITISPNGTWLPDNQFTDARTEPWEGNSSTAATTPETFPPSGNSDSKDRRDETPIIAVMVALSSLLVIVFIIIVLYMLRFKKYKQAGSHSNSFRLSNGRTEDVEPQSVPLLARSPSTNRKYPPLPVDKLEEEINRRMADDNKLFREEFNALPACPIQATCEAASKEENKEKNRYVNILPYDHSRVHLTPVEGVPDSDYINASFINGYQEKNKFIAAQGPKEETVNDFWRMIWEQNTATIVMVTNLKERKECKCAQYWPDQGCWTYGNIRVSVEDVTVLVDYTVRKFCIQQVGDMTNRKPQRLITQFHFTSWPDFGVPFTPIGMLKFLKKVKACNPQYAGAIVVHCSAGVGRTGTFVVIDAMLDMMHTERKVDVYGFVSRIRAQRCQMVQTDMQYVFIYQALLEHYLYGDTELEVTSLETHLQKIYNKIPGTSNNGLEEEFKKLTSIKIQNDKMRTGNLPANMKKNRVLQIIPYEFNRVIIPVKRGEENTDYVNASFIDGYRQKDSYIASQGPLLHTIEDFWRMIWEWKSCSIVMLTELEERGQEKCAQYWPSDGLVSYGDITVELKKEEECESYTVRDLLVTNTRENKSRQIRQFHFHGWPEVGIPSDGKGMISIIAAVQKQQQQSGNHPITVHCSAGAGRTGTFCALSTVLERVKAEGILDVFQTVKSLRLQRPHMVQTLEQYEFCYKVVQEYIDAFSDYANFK
Sequence of Tyrosine-protein phosphatase non-receptor type 13 (Q12923 whole entry): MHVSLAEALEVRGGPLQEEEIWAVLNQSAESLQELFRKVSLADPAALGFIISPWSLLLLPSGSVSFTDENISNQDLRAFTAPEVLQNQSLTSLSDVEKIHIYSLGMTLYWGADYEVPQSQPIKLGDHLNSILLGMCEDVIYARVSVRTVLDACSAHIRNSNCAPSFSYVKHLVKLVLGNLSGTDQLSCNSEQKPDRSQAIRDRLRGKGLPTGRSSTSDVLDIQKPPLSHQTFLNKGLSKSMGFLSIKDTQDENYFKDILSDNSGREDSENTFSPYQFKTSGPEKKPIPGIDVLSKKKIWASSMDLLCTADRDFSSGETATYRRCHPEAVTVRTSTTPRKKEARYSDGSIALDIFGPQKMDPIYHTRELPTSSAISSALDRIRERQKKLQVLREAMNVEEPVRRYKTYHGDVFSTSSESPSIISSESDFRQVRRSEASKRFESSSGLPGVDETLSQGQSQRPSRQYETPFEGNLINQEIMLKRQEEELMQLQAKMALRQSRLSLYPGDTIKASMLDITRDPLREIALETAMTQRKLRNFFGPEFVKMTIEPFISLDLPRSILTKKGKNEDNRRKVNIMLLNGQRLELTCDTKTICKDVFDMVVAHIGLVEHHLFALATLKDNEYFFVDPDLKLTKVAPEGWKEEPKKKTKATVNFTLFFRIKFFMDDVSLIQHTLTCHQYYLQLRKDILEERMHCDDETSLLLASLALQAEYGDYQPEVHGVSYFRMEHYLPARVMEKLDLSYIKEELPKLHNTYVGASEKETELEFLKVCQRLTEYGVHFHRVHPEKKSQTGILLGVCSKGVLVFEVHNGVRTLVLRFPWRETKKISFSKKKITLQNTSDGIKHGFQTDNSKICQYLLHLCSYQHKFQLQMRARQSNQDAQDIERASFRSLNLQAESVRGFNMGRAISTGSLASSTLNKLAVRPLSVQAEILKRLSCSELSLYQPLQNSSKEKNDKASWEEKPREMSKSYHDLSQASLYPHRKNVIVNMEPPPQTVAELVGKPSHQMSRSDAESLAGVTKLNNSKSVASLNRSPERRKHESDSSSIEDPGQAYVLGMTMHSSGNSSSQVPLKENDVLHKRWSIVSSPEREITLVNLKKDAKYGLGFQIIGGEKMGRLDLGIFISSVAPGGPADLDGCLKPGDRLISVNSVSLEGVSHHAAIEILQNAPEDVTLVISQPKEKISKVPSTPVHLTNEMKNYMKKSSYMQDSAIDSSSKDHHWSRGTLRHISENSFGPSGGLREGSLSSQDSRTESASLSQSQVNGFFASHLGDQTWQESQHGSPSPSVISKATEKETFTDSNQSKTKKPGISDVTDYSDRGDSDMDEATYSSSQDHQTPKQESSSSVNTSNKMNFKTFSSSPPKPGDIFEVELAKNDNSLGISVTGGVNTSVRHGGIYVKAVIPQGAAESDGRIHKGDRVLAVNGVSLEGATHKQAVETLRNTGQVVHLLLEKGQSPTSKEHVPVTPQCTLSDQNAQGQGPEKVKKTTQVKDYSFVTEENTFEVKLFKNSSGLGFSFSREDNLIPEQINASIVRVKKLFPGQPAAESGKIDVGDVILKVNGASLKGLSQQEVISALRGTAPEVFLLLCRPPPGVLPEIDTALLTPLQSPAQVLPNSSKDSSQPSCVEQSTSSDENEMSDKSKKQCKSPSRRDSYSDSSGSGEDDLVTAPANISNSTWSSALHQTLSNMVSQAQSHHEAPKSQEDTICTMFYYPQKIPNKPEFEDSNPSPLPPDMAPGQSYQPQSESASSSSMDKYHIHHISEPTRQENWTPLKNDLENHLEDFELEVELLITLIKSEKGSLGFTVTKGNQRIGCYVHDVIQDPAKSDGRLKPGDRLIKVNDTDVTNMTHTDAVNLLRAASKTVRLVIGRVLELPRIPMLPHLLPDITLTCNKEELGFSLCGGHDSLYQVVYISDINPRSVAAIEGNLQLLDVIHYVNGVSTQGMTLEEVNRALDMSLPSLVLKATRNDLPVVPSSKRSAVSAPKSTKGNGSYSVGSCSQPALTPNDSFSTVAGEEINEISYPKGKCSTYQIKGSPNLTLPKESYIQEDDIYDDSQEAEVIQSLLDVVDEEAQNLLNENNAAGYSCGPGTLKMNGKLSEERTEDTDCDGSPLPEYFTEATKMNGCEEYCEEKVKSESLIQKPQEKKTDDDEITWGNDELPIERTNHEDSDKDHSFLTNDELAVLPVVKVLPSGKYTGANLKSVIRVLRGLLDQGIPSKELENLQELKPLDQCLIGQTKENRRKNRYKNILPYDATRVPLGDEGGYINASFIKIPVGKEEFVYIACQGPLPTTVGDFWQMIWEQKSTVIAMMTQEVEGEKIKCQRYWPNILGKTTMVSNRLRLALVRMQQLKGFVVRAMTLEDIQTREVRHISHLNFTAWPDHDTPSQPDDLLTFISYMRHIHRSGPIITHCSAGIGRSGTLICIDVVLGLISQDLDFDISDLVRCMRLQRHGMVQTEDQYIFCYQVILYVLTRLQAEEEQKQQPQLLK

By pIC50 is commonly meant −log10 of the IC50, conventionally taken in molar units. The low end stands for a large IC50, the high end for a small IC50. In the case of `O=C(CCCn1cc(-c2c(-c3ccccc3)oc3cc(O)c(C(=O)O)cc23)nn1)Nc1cccc2ccccc12`, the outcome in experiment [1] and in [4] was inactive. Moreover, the pIC50 in experiment [2] is 4.93; in experiment [3], 4.43; in experiment [5], 4.44; in experiment [6], 3.99; in experiment [7], 4.50; in [8], 3.73. The pIC50 is 4.49 in experiment [9] and 4.32 in experiment [10].
